Here are results for six compounds from publication PMC12655733, “Design, Synthesis and Evaluation of the First 2-Alkynyl(aza)indole ^18F Probe Targeting α-Synuclein Aggregates” (Pharmaceuticals, 2025).

Read-outs that look alike come from different tables or passages of the source.

Data set [1] concerns the target T1, Aβ1-42 fibrils (Homo sapiens, UniProt P05067).
T1 construct: Wild-type α-syn and Aβ1-42 were expressed; made in house; host or cells: Escherichia coli BL21(DE3)
In words: Inhibition of thioflavin T binding to Aβ1-42 fibrils (fluorescence competition), Ki determination. As to conditions: calculated from IC50, competition with ThT 500 nM, fibrils 500 nM, mean ± SD of 3 experiments; read-out: Ki Aβ. The procedure: (§1) Wild-type α-syn and Aβ1-42 were expressed in the Escherichia coli strain BL21(DE3) (Stratagene, La Jolla, CA, USA) and purified as described. […] For the Aβ1-42 peptide, the concentration was determined by a fluorometric method using the reactive compound fluorescamine (Sigma, San Jose, CA, USA) that reacts with primary amino groups to form a fluorescent product. The human Tau protein (isoform h2N4RTau) was expressed in the pET11d vector in the Escherichia coli strain BL21(DE3) (Stratagene, La Jolla, CA, USA) and purified as described.
(§2) For assembly into fibrils, α-syn was incubated in 50 mM Tris-HCl, pH 7.5, 150 mM KCl at 37 °C under continuous shaking for 4 days. Lyophilized Aβ1-42 was dissolved in 1,1,1,3,3,3-hexafluoro-2-propanol (HFIP) at a concentration of 0.2 mg/mL and incubated for 24 h at 37 °C to achieve complete solubilization. HFIP was evaporated under a nitrogen stream to obtain a dry film. To start assembly into fibrils, the dry peptide was resuspended in PBS pH 7.4, 10% (v/v) DMSO and incubated at 37 °C without shaking for 3 days. The Tau protein was assembled in fibrils in a PBS buffer containing 1 mM of DTT in the presence of 1/12 heparin (v/v) at 37 °C under shaking. […] Protein fibrils were systematically examined by transmission electron microscopy (TEM) in a Jeol 1400 transmission electron microscope following adsorption onto carbon-coated 200 mesh grids and negative staining with 1% uranyl acetate. The images were recorded with a Gatan Orius CCD camera (Gatan, Pleasanton, CA, USA). Finally, the percentage of α-syn or Aβ1-42 aggregated into fibrils was assessed by pelleting fibrils at 40,000× g for 20 min and by determining the concentration of soluble protein/peptide remaining in the supernatant.
(§3) The samples were incubated for 1 h at room temperature to achieve complete equilibration.

In data set [2] the target is T2, Tau fibrils (isoform h2N4RTau) (Homo sapiens, UniProt P10636).
T2 construct: made in house; host or cells: Escherichia coli BL21(DE3), pET11d vector
In words: Direct fluorescence titration on Tau fibrils: Kd and Bmax. The format is binding. The text has this: (§4) In view of the interesting properties of compounds 33–39, we decided to switch to azaindole structures and to study the impact of the position of the nitrogen atom in the 6-membered ring on binding to fibrils. At this step we measured, in addition to the Ki values, the direct binding of each compound to fibrils through the fluorescence in the fraction bound to fibrils, which allowed us to determine the affinity values (Kd, Table 1). […] We therefore prepared a fluorinated derivative of compound 43, i.e., 45.
(§5) Fresh solutions of each tested compound (2.5 mM in DMSO) were diluted in PBS pH 7.4 at concentrations ranging from 0.5 nM to 5 µM in the presence or absence of α-syn, Aβ1-42, or Tau fibrils (200 nM, 500 nM, or 200 nM, respectively) in a final volume of 2 mL. After 1 h incubation at room temperature, the binding of each compound to α-syn, Aβ1-42, or Tau fibrils was assessed by fluorescence measurements using the appropriate excitation/emission wavelengths (i.e., those yielding the highest fluorescence ratio between fibril-bound and free compound). For any given concentration of compound added to the fibrils, the concentrations of compound bound to the fibrils and free in solution were determined on the basis of the measured fluorescence. Since at each point of the titration: Fm = FB × B + FF × (T − B) where Fm is the measured fluorescence of the compound in the presence of fibrils at a given compound concentration T, FB is the specific molar fluorescence of the bound compound, FF is the specific molar fluorescence of the free compound, and B is the concentration of compound bound to the fibrils at any point of the titration. FF was determined by measuring the fluorescence of known compound concentrations in the absence of fibrils. FB was determined by measuring the maximum fluorescence of known compound concentrations upon saturation with α-syn, Aβ1-42, or Tau fibrils.
(§6) Therefore, at each point of the titration, the concentration of bound compound B could be determined and was B = (Fm − FF × T)/FB − FF. The B values thus determined versus the respective concentrations of free compound were analyzed by fitting to the Michaelis-Menten equation.

Data set [3] deals with Aβ1-42 fibrils. In words: Direct fluorescence titration on Aβ1-42 fibrils: Kd and Bmax. The format is binding. As to conditions: from Kd values.
Description: as §4, §5, §6

The target of data set [4] is T1, Aβ1-42 fibrils. Described as above. The format is binding. As to conditions: for Kd: direct assay on fibrils, mean ± SD of 3 experiments, read-out: Kd Aβ.
Description: as §4, §5, §6

Data set [5] concerns the target T2, Tau fibrils (isoform h2N4RTau). In words: Inhibition of thioflavin T binding to Tau fibrils (fluorescence competition), Ki determination. As to conditions: calculated from IC50, competition with ThT 500 nM, fibrils 200 nM, mean ± SD of 3 experiments. On the procedure: as §1, §2, §3
Data set [6] deals with T3, α-syn fibrils (Homo sapiens, UniProt P37840).
T3 construct: made in house; host or cells: Escherichia coli BL21(DE3)
In words: Direct fluorescence titration on α-syn fibrils: Kd and Bmax. In kind it is binding.
Description: as §4, §5, §6

For data set [7], the target named is T3, α-syn fibrils. In words: Inhibition of thioflavin T binding to α-syn fibrils (fluorescence competition), Ki determination. As to conditions: calculated from IC50, competition with ThT 500 nM, fibrils 200 nM, mean ± SD of 3 experiments. On the procedure:
as §1, §2, §3

A short description of data set [8]: Octanol–water partition coefficient at pH 7.4 (LogD). In kind it is physicochemical. As to conditions: pH 7.4, mean ± SD on three independent experiments.
Data set [9] deals with α-syn in MSA tissues. More on the design: method as in PMID 38352848. As to conditions: cited from earlier work.
In data set [10] the target is T3, α-syn fibrils. As to conditions: cited from earlier work; for Kd: read-out: Kd for α-syn.
For data set [11], the target named is Aβ fibrils. As to conditions: cited from earlier work; for Kd: read-out: Kd for Aβ fibrils.
In data set [12] the target is tau fibrils. As to conditions: cited from earlier work.
The mark [13] stands for this setting: direct assay on fibrils, mean ± SD of 3 experiments.
Where [14] appears, read: density of binding sites, Scatchard analysis.

T2 sequence (P10636 1-441 isoform P10636-8): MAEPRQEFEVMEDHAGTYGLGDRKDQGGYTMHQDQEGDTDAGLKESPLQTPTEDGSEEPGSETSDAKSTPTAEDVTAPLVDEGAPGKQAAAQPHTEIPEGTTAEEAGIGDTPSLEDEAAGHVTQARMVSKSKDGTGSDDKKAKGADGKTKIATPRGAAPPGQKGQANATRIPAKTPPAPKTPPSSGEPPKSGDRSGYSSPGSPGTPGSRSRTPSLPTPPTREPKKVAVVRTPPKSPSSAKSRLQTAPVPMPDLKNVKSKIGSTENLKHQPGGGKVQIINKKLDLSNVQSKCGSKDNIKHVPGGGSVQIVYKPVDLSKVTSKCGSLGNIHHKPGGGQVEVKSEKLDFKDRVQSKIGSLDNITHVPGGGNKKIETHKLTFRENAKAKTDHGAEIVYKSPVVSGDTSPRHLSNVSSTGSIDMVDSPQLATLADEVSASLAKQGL
T1 sequence (P05067 672-713): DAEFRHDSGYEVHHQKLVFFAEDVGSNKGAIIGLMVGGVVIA

The Ki is a dissociation constant, usually derived from enzyme kinetics or from competition with a known ligand. Broadly, the Kd is the equilibrium constant for the complex coming apart. `CN(C)c1ccc(C#Cc2cc3cccnc3[nH]2)cc1` [Compound 43]: the Ki in [1] is 24.4 ± 9 nM; in data set [5] it was 4.61 ± 0.2 nM; in [7], 4.7 ± 2 nM. Also, the dissociation constant Kd worked out at 0.44 ± 0.1 nM in data set [2] (setting [13]), 11.8 ± 3 nM in data set [4] and 0.53 ± 0.2 nM in data set [6] (setting [13]). In addition, the “Kd Tau” value in data set [2] (setting [13]) was “sub-nanomolar”. Moreover, the “reduction of affinity for Aβ versus α-syn and tau fibrils” value in data set [3] was 20 fold. The “Kd α-Syn” value in data set [6] (setting [13]) is given as “sub-nanomolar”.

What is called logD is lipophilicity at a set pH, counting ionised and neutral species. Read a high logD as a more lipophilic compound. On to `CN(CCF)c1ccc(C#Cc2cc3cccnc3[nH]2)cc1` [Compound 45], for which, in [2] (corresponding to Bmax), the “tau monomers per 1 compound bound” value was determined as 20 tau monomers. For the same compound, the “Bmax on tau fibrils” value in data set [2] (setting [14]) was found to be 46.6 ± 5.0 nmol/µmol tau fibrils. In addition, the equilibrium dissociation constant (Kd) is 0.97 ± 0.4 nM in [2] (setting [13]), 1.2 ± 1 nM in data set [4] and 2.4 ± 1 nM in [6] (setting [13]). The “Aβ monomers per 1 compound bound” value in data set [4] (corresponding to Bmax) was 600 Aβ monomers. The “Bmax on Aβ fibrils” value in data set [4] (setting [14]) came out at 1.8 ± 0.6 nmol/µmol Aβ fibrils. Besides, in [8], the pH-dependent lipophilicity (logD) came to 2.59 ± 0.141. For the same compound, in [6] (corresponding to Bmax), the “α-syn monomers per 1 compound bound” value was 7 α-syn monomers. Also, the “Bmax on α-syn fibrils” value in data set [6] (setting [14]) is recorded as 141.1 ± 45 nmol/µmol α-syn fibrils.

In the case of `O=C1c2cn(-c3ccc(N4CC[C@@H]([18F])C4)nc3)nc2CN1c1cccnc1` [[^18F] ACI-12589], the Kd in data set [9] was 22 to 30 nM.

In the case of `Cc1cc2nc(/C=C/c3ccc(O)c(Br)c3)sc2cc1N(C)CCOCC[18F]` [[^18F]F0502B], the values for the Kd in data set [10], in [11] and in data set [12] were roughly 10 nM, roughly 100 nM and roughly 100 nM, respectively.

Regarding `[18F]c1ccc2nc(/C=C/c3ccc(N4CCOCC4)cc3)sc2c1` [[^18F]MFSB], the figures for the Kd in data set [10], in data set [11] and in [12] were roughly 10 nM, roughly 100 nM and roughly 100 nM, respectively.

Regarding `O=C1/C(=C\C=C\c2ccc([N+](=O)[O-])cc2)c2ccccc2N1Cc1ccc(OCC[18F])cc1` [[^18F]indolone], the Ki in data set [10] (in vitro) was 10 nM. Further, in [11] (α-syn versus Aβ), the “selectivity towards Aβ fibrils” value was 27 fold. Further, the “selectivity for α-syn over tau fibrils” value in data set [12] (α-syn versus tau) was 5 fold.
